In patent US9006191B2, “Silencing of polo-like kinase expression using interfering RNA” (Protiva Biotherapeutics, Inc., priority 2007, dated 2015):

Legend:
IFIT1 mRNA, serum IFNα [1] = experiment: In vivo immune stimulation assay in Balb/c mice (IFIT1 mRNA, serum IFNα); conditions: SNALP-formulated siRNA IV, 4 h
Description: (§1) Balb/c mice (n=4 per group) were administered 2.5 mg/kg siRNA or lipid vehicle; serum IFNα (pg/mL) and IFIT1 mRNA (relative to GAPDH) from whole liver lysates were assessed after 4, 8, and 16 h by ELISA and bDNA assay, respectively. […] (b) Serum IFNα and (c) liver IFIT1 mRNA were assessed 4 h after administration (mean+SD, n=4).
(§2) SNALP-formulated Luc (unmodified) and the 2′OMe-modified Luc-U/U, PLK1424-2/A, PLK773-1/B, or KSP2263-U/U siRNA were administered at 2 mg/kg i.v. to Balb/C mice. (A) IFIT1 relative to GAPDH mRNA in liver and spleen was assessed at 4 h by bDNA analysis. […] Serum IFNα was assessed at 6 h by ELISA. […] Values represent mean+SD (n=4).
(§3) IFIT1 mRNA and serum cytokines were assessed 4-6 h after SNALP administration based on the approximate time of peak response for these markers. In these studies, SNALP-formulated native Luc siRNA (Table 6) was used as a positive control for immune stimulation.
(§4) In vivo immune stimulation assays. […] 6-8 week old Balb/C mice were obtained from Harlan and subject to a two week acclimation period prior to use. Mice were administered SNALP formulated siRNA (2 mg/kg) in PBS via standard intravenous injection in the lateral tail vein. Blood was collected by cardiac puncture and processed as plasma for cytokine analysis. Liver and spleen were collected into RNALater (Sigma Co.) for IFIT1 mRNA analysis.
(§5) Measurement of IFIT1 mRNA in mouse tissues. Murine liver and spleen were processed for bDNA assay to quantitate IFIT1 mRNA as described above. The IFIT1 probe set was specific to mouse IFIT1 mRNA (positions 4-499 of NM—008331) and the GAPDH probe set was specific to mouse GAPDH mRNA (positions 9-319 of NM—008084). Data is shown as the ratio of IFIT1 relative light units (RLU) to GAPDH RLU.
(§6) Cytokine ELISA. All cytokines were quantified using sandwich ELISA kits. These were mouse interferon-α (PBL Biomedical; Piscataway, N.J.) and human and mouse IL-6 (BD Biosciences; San Diego, Calif.).

IFIT1 mRNA, serum IFNα [2] = conditions: mouse, in vivo, iv
Description: as §1, §2, §3, §4, §5, §6

IFN-α, IFIT1 mRNA = experiment: In vivo immune stimulation assay in CD1 ICR mice (plasma IFN-α, IFIT1 mRNA); parameters: species or system mouse; conditions: 1:57 PEG-cDMA SNALP, 3 mg/kg IV, 4 h
Description: In vivo immune stimulation assays. Animal studies were performed to test for the immunostimulatory activity of SNALP containing 2′OMe-modified PLK1424 siRNAs. Six-week-old female CD1 ICR mice were used in this study. […] The tolerability of the treatment regime was monitored by animal appearance and behavior.

HepG2 cells = experiment: HepG2 cell viability assay; type: cell-based, human; conditions: PLK1424 SNALP 0.31-5 nM, 72 h

| Substance | IFIT1 mRNA induction in liver and spleen (IFIT1 mRNA, serum IFNα [1]) | serum IFNα / serum cytokine response (IFIT1 mRNA, serum IFNα [2]) | IFIT1 induction (QG analysis) (IFN-α, IFIT1 mRNA) | cell viability (HepG2 cells) |
| --- | --- | --- | --- | --- |
| PLK1424-2/A: 2′OMe-modified PLK1424 duplex, SEQ ID NO:214/215 (same SEQ IDs as PLK1424 1/3 of Table 11) (chain 1 AGANCACCCNCCUNAAANAUU; chain 2 UAUUUAANGAGGGUGANCUUU; siRNA; 2'-O-methyl modifications at selected positions, key for n not given here) | no measurable IFNα or increase in IFIT1 mRNA in the liver or spleen | no measurable IFNα | no significant IFIT1 induction above that of empty SNALP |  |
| PLK1424: siRNA to human PLK-1, SEQ ID NO:1/2 (UU overhang form 211/212) (chain 1 AGAUCACCCUCCUUAAAUA; chain 2 UAUUUAAGGAGGGUGAUCU; further chemistry not given here) |  |  |  | potent activity |
